In US20220362182A1, “METHODS FOR REVERSING HEPATIC STEATOSIS” (BRIGHTSEED, INC., priority 2020, published 2022):
“Also recorded” adds a separate entry of the source. Read-outs that look alike come from different tables or passages of the source.

Legend:
SPNS2 mRNA = assay: SPNS2 qPCR in T6PNE cells; format: cell-based, human
Experimental: (§1) Quantitative PCR (Q-PCR) from in vitro cell culture experiments used total RNA purified using RNeasy Kits (Qiagen). For liver tissue samples, total RNA was isolated using Trizol (Invitrogen) and prepared for RNAseq (mouse liver DMSO and NCT, N=3). cDNA was amplified using 3 μg of total RNA using qScript cDNA SuperMix (Quanta BioSciences, Beverly, Mass., USA). QPCR analysis was performed using SYBR® Select Master Mix (Applied Biosystems) and ABI 7900HT (Applied Biosystems, Thermo Fisher Scientific). The Ct values of mRNA expression were then normalized to the 18 s rRNA values and are expressed as fold change over samples from mice fed normal chow for in vivo experiments or DMSO controls for cell culture experiments.

C57BL/6J DIO mice = assay: DIO mice injected IP for 14 days (hepatic steatosis); format: in vivo; conditions: for serum free fatty acids (FFA): after glucose challenge; for hepatic stored fat by Oil Red O staining: liver sections; for hepatic stored fat by Oil Red O staining / alkaline phosphatase (ALP) / epididymal fat pad weight / hepatic triglyceride content / liver weight / hepatic steatosis: 200 mg/kg; for alkaline phosphatase (ALP) / epididymal fat pad weight / hepatic triglyceride content / liver weight: vs DMSO; for hepatic steatosis: two weeks; for toxicity / general condition: mice, IP, up to the highest dose administered
Experimental: Compounds were injected IP into diet-induced obese mice at a dose of 200 mg/kg bid for two weeks. At that point, mice were sacrificed and organs were harvested for analysis. To test the hypothesis that HNF4a controls hepatic fat storage, N-trans-caffeoyltyramine was administered to C57BL/6J DIO mice maintained on a 60% fat calorie diet. Based upon PK studies with N-trans-caffeoyltyramine, IP injection was chosen for two week for these proof of concept studies. […] It was observed that N-trans-caffeoyltyramine was stimulating lipophagy (FIG. 1A).
Slides containing frozen liver tissue sections from mice were air dried for 10-20 min followed by rehydration in distilled water. Sections were immersed in absolute propylene glycol (Cat #151957, MP Biomedicals, LLC, USA) for 2 min followed by 0.5% in oil red O solution (Cat #K043, Poly Scientific R&D, USA) for 2 h. Slides were then differentiated in 85% propylene glycol solution, washed with dH2O for 2 h, and mounted using glycerin jelly mounting medium. All slides were scanned at a magnification of 20× using the Aperio Scanscope FL system (Aperio Technologies Inc., Vista, Calif., USA). The liver area stained with oil red O was measured using image J software as described, with some modifications. Oil red O-stained liver images were opened in Image J software. Using the Analyze>Set Scale command, the scale bar of the images was set to 200 um. RGB images were then converted into gray scale images using the Image>Type>RGB Stack command and were split into red, blue and green channels. Using the Image>Adjust>Threshold command, the threshold was manually set to highlight the oil red O-stained lipid droplets in the green channel. The same threshold was used for all the images in all treatment groups and the % oil red O-stained area was obtained using the Analyze→Measure tool command. Fold change was calculated by normalizing the values to images from mice fed normal chow.
12-week-old C57BL/6 J DIO male mice (cat #380050) were purchased from Jackson Laboratory and were fed with high fat diet containing 60 kcal % fat (Research Diets cat #D12492). Mice were maintained in a 12-h light/day cycle. After 2 weeks of acclimation, mice with similar body weights were randomly assigned to treatment or control groups.
For dose response experiments, mice were injected intraperitoneally with 10% DMSO as vehicle control or 4 different doses of NCT (30, 60, 120 and 240 mg/kg of body weight) dissolved in 10% DMSO. Mice received 2 doses per day with a 5 h interval between injections for 3 days. To test the effect of NCT (Sundia MediTech Company, Ltd., Custom synthesis), 200 mg/kg was injected IP bid for 14 days. On day 15, mice received a final dose of NCT followed by IP injection with 3 g/kg dextrose. One h later, blood samples were collected and mice were euthanized using pentobarbital. Total mouse, liver and epididymal fat pad weights were measured. Dissected liver samples were washed in cold PBS, cut into small pieces and distributed for analyses. For RNA isolation and ELISA, liver samples were snap frozen using liquid nitrogen and stored at −80° C. For histomorphometry and immunofluorescence analysis, liver samples were fixed in 4% of cold PFA and processed for histology. All animal experiments were approved by the Institutional Animal Care and Use Committee (IACUC) of the Sanford Burnham Prebys Medical Discovery Institute in accordance with national regulations.
The serum FFA level was measured using the Free Fatty Acid Quantification Colorimetric/Fluorometric Kit (Cat #K612, BioVision, USA). Fold change was calculated by normalizing to values from mice fed normal chow.
Serum and liver TG level was measured using the Triglyceride calorimetric Assay Kit (Cat #10010303, Cayman Chemicals, USA). Fold change was calculated by normalizing the values from normal chow mice. […]

p62 = p62 Western blot in T6PNE cells; format: cell-based, human; conditions: NCT 10 μM, RA 10 μM, fenretinide
Experimental: Whole-cell extracts were prepared by incubation in RIPA buffer (Invitrogen) containing protease inhibitors (Calbiochem, San Diego, Calif.). Protein ([…]) was separated on 12% or 16% Tri-Glycine gels (Invitrogen) and transferred to Immobilon P membrane (0.2 μm pore, Millipore). After 1 h in phosphate-buffered saline-Tween (PBST) with 3% milk, membrane was incubated with antibodies to HNF4α (mouse, Novus, 1:1000), LC3B (rabbit, Novus, 1:500), p62 (SQSTM1, mouse, Santa Cruz, 1:1000) or β-actin (mouse, Santa Cruz, 1:2000), followed by secondary antibody conjugated to horseradish peroxidase (1:5000, Jackson Immune).

CYP26A1 mRNA = CYP26A1 mRNA in T6PNE cells; format: cell-based, human; conditions: 2 days, 0.25 mM palmitate, NCT 10 μM, 4-OH-RA 20 μM
Experimental: as §1

[1] = listed as N-trans-caffeoyltyramine
[2] = DIO mice, 200 mg/kg bid IP, 14 days
[3] = DIO mice, 200 mg/kg bid IP, 14 days, listed as N-trans-caffeoyltyramine

SMILES: O=C(/C=C/c1ccc(O)c(O)c1)NCCc1ccc(O)cc1 [NCT, N-trans-caffeoyltyramine]
- SPNS2 expression (mRNA) (SPNS2 mRNA): induced SPNS2 expression
- SPNS2 expression (mRNA) (SPNS2 mRNA; [1]): induced the expression
- color of the liver (C57BL/6J DIO mice; [2]): shift in the color of the liver from yellow to red
- other markers of liver function in the VetScan panel (C57BL/6J DIO mice; [2]): no change
- serum free fatty acids (FFA) (C57BL/6J DIO mice; [2]): induced an increase in free fatty acids
- serum free fatty acids (FFA) (C57BL/6J DIO mice; [3]): induced an increase in free fatty acids; also recorded: Serum FFA were increased
- hepatic stored fat by Oil Red O staining (C57BL/6J DIO mice; [2]): decrease in stored fat by Oil Red O staining
- hepatic stored fat by Oil Red O staining (C57BL/6J DIO mice; [3]): decrease in stored fat by Oil Red O staining; also recorded: significantly reduced the Oil Red O
- alkaline phosphatase (ALP) (C57BL/6J DIO mice; [2]): decreased ALP; also recorded: decrease in ALP
- epididymal fat pad weight (C57BL/6J DIO mice; [2]): increase in epididymal fat pad mass; also recorded: increased weight
- hepatic triglyceride content (C57BL/6J DIO mice; [2]): reduction in the hepatic triglyceride content
- liver weight (C57BL/6J DIO mice; [2]): weighed less than those of the control mice
- alkaline phosphatase (ALP) (C57BL/6J DIO mice; [3]): ALP was decreased
- epididymal fat pad weight (C57BL/6J DIO mice; [3]): increase in epididymal fat pad mass; also recorded: increase in epididymal fat pad weight
- hepatic triglyceride content (C57BL/6J DIO mice; [3]): hepatic triglyceride content was decreased; also recorded: significantly reduced
- liver weight (C57BL/6J DIO mice; [3]): weighed less than those of the control mice; also recorded: decreased liver weight
- body weight gain (C57BL/6J DIO mice; DIO mice, 200 mg/kg bid IP, 14 days, vs control): gained weight to a similar degree
- hepatic steatosis (C57BL/6J DIO mice; DIO mice, 200 mg/kg bid IP): reversed hepatic steatosis; also recorded: reversal of hepatic steatosis; also recorded: reduction of steatosis
- hepatic steatosis (C57BL/6J DIO mice; DIO mice, 200 mg/kg bid IP, listed as N-trans-caffeoyltyramine): reverses hepatic steatosis
- serum TG at week 1 (C57BL/6J DIO mice; DIO mice, 200 mg/kg bid IP, week 1): increased
- serum TG at week 2 (C57BL/6J DIO mice; DIO mice, 200 mg/kg bid IP, week 2, end of the study): not at week 2
- toxicity / general condition (C57BL/6J DIO mice): remained healthy and active; also recorded: unable to establish a maximum tolerated dose because of the lack of toxicity; also recorded: completely nontoxic at the highest dose administered
- toxicity / general condition (C57BL/6J DIO mice; [1]): remained healthy and active
- p62 protein expression normalized to actin (p62): induced increases
- CYP26A1 mRNA level (CYP26A1 mRNA): induced CYP26a1
